Like-named read-outs stand apart in the source and are kept apart here.
Tests used:
B-Raf = B-Raf (Homo sapiens, UniProt P15056); assay: SelectScreen Kinase Profiling Service (Invitrogen), IC50 with or without 5 h preincubation of kinase/test compound; assay type: biochemical
Procedure: (§1) d) B-Raf/B-Raf (V600E) (SelectScreen™ Assay)
(§2) Selected compound of the present invention were tested in the Select Screen™ Kinase Profiling Service (Invitrogen Corporation, Madison, Wis. 53719, USA) against B-Raf and the B-Raf (V600E) [“V599E” in terminology used by Invitrogen], under conditions of non-disclosure, non-dissemination and non-use.
(§3) In brief, compounds 11 and 39 (see Table 1) were tested at Invitrogen against B-Raf and the B-Raf (V600E), either with or without preincubation of kinase/test compound for 5 hours.

B-Raf (V600E) = B-Raf (V600E) (Homo sapiens, UniProt P15056, V600E); assay: as above; assay type: biochemical
Procedure: as §1, §2, §3

[1] = tested on: HT-29 [B-Raf V600E mutant]; assay: Anti-proliferative activity, SRB assay, 72 hours; assay type: cell-based; details: Homo sapiens, read-out: CELLULAR IC50 [μM] HT-29 [B-Raf V600E mutant]
Method in brief: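 HT-29 cells, plated 24 h before dosing, exposed to a concentration range of compound for 72 h. Proliferation measured by sulforhodamine B staining after TCA fixation, absorbance at 520 nm; % inhibition versus DMSO-treated cells used to estimate IC50.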

A-431 [B-Raf wildtype] = assay: Anti-proliferative activity, SRB assay, 72 hours; assay type: cell-based; details: Homo sapiens, read-out: CELLULAR IC50 [μM] A-431 [B-Raf wildtype]
Method in brief: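 Cells seeded 24 h before compound, then exposed to a concentration range for 72 h. TCA-fixed, stained with sulforhodamine B, bound dye solubilized in 10 mM Trizma and read at OD520. IC50 from % inhibition of proliferation vs DMSO-treated cells.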

p38 = molecular target: T1, p38 (Homo sapiens, UniProt Q16539); assay: Biochemical inhibition, standard selectivity panel (Proteros); parameters: dose or concentration left out as unconfirmed
T1 construct: purchased Proteros biostructures GmbH (selectivity panel service)
Procedure: (§4) For example, selected compound of the present invention were tested in a standard selectivity panel including c-Raf, p38, and 22 other kinases (Proteros biostructures GmbH, Martinsried/Munich, Germany), under conditions of non-disclosure, non-dissemination and non-use.
(§5) In brief, selected compounds of the present invention were tested […] in triplicates against c-Raf, p38 as well as against Ab1, Akt1, Aur A, c-Kit, c-Raf, Cdk1/CycB, Chk1, FGFR3, Flt3, Fyn, IGF1-R, INSR, Lyn, MAPK-ERK1, PAK-4, PKCalpha, Plk1, Ret, ROCK2, RSK 1, c-Src, TIE2, and VEGF-R2.

C-Raf = molecular target: T2, C-Raf (Homo sapiens, UniProt P04049); assay: as above; parameters: dose or concentration left out as unconfirmed
T2 construct: purchased Proteros biostructures GmbH (selectivity panel service)
Procedure: as §4, §5

[2] = 5 h preincubation of kinase/test compound, read-out: IC50 [nM] B-Raf 5 h preincub.
[3] = without preincubation of kinase/test compound, read-out: IC50 [nM] B-Raf w/o preincub.
[4] = 5 h preincubation of kinase/test compound, read-out: IC50 [nM] B-Raf (V600E) 5 h preincub.
[5] = without preincubation of kinase/test compound, read-out: IC50 [nM] B-Raf (V600E) w/o preincub.

T2 sequence (P04049 whole entry): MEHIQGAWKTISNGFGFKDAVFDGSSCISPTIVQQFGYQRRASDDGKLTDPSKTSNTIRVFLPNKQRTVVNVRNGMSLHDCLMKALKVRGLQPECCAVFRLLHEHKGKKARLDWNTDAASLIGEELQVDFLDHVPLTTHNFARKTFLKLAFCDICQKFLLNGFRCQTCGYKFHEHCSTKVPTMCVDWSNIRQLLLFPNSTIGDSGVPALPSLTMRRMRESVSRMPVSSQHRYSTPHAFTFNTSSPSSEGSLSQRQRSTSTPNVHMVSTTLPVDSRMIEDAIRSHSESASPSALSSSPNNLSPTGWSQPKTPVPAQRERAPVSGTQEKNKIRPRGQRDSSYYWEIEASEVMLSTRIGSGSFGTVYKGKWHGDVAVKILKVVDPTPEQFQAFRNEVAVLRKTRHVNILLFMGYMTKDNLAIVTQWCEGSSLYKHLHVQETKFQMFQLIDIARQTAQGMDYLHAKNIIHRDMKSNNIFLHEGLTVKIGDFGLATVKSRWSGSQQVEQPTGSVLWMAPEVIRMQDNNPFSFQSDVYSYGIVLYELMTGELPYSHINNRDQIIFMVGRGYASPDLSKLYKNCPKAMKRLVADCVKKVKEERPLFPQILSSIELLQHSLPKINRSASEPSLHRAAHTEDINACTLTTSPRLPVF
Chain of B-Raf (P15056 whole entry): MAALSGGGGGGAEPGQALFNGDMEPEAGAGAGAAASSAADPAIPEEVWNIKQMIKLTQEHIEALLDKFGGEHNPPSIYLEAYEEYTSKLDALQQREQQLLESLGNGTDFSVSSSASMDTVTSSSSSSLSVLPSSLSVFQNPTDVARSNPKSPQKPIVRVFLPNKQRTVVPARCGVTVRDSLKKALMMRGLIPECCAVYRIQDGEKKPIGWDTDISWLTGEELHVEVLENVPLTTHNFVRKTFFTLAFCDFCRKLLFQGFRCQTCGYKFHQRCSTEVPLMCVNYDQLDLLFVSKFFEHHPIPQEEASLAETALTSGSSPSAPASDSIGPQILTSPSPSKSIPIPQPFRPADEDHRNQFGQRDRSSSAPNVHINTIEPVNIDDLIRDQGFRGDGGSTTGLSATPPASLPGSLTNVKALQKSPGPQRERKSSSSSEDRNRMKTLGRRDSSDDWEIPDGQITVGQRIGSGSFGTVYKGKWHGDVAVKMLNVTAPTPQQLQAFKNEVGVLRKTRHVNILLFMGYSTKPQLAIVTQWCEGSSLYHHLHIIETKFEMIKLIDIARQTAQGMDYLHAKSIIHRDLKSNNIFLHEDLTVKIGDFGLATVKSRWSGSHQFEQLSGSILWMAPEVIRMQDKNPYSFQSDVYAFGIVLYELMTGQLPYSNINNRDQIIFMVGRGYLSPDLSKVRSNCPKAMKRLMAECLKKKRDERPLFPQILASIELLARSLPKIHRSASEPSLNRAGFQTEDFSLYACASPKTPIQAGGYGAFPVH
Chain of B-Raf (V600E) (P15056 whole entry V600E): as the sequence (P15056 whole entry) above, with V600E counted along it
T1 sequence (Q16539 whole entry): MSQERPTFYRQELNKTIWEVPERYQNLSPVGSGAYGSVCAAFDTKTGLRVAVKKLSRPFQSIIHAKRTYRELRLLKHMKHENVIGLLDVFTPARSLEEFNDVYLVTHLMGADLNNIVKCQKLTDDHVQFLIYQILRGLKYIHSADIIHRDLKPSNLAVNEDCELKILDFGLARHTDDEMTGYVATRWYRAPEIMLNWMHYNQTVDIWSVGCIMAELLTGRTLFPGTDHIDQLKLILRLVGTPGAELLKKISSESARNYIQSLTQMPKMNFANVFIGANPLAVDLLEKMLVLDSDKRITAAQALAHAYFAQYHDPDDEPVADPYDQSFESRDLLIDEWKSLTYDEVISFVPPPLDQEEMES

Row | SMILES | IC50 (B-Raf; [2]) | IC50 (B-Raf; [3]) | IC50 (B-Raf (V600E); [4]) | IC50 (B-Raf (V600E); [5]) | IC50 [1] | IC50 (A-431 [B-Raf wildtype]) | inhibition (p38) | inhibition (C-Raf)
1 | COn1c(=O)c(-c2cc(NC(=O)c3cc(C(C)(C)C)nn3C)ccc2Cl)cc2cnc(NCCN(C)C)nc21 [Compound 11, 5-tert-Butyl-2-methyl-2H-pyrazole-3-carboxylic acid {4-chloro-3-[2-(2-dimethylamino-ethylamino)-8-methoxy-7-oxo-7,8-dihydro-pyrido[2,3-d]pyrimidin-6-yl]-phenyl}-amide] | < 250 nM | < 250 nM | < 100 nM | < 100 nM | < 10 µM | > 10 µM |  | 
2 | COn1c(=O)c(-c2cc(NC(=O)c3cccc(C(F)(F)F)c3F)ccc2Cl)cc2cnc(NCCN(C)C)nc21 [Compound 39, N-{4-Chloro-3-[2-(2-dimethylamino-ethylamino)-8-methoxy-7-oxo-7,8-dihydro-pyrido[2,3-d]pyrimidin-6-yl]-phenyl}-2-fluoro-3-trifluoromethyl-benzamide] | < 10 nM | < 10 nM | < 5 nM | < 5 nM | < 5 µM | > 10 µM | > 70% | > 70%
3 | COn1c(=O)c(-c2cc(NC(=O)c3cc(Cl)nc(N4CCOCC4)c3)ccc2Cl)cc2cnc(NCCN(C)C)nc21 [Compound 61, 2-Chloro-N-(4-chloro-3-(2-(2-(dimethylamino)ethylamino)-8-methoxy-7-oxo-7,8-dihydropyrido[2,3-d]pyrimidin-6-yl)phenyl)-6-morpholin-4-yl-isonicotinamide] |  |  |  |  | < 5 µM | > 10 µM | > 70% | > 70%
4 | COn1c(=O)c(-c2cc(NC(=O)c3cc(Cl)nc(NC(C)C)c3)ccc2Cl)cc2cnc(NCCN(C)C)nc21 [Compound 64, 2-Chloro-N-(4-chloro-3-(2-(2-(dimethylamino)ethylamino)-8-methoxy-7-oxo-7,8-dihydropyrido[2,3-d]pyrimidin-6-yl)phenyl)-6-isopropylamino-isonicotinamide] |  |  |  |  | < 5 µM | > 10 µM | > 70% | > 70%

From patent US8232283B2, “Raf inhibitors” (Forma Therapeutics, Inc., priority 2008, dated 2012)
